These results are taken from PubChem BioAssay (NCI).

SMILES strings stand for the structures.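 Dose response: 5 concentrations. Exposure: 48 h. Format: 96-well plates. Endpoint: linear interpolation; highest concentration if not reached. At the GI50, growth is halved. The concentration for full growth arrest is given as TGI.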 Some results are limits rather than exact numbers.

Assay in all cases: inhibition of tumour cell growth, NCI panel, 48 h
Experiment [1] has as its system HT29 colon.
Experiment [2] concerns U251 CNS.
For experiment [3], the system named is SF-295 CNS.
Experiment [4] deals with SNB-19 CNS.
The subject of experiment [5] is RXF 393 renal.
Experiment [6] relates to SF-539 CNS.
For experiment [7], the system named is ACHN renal.
Experiment [8] has as its system MOLT-4 leukemia.
Experiment [9] concerns 786-0 renal.
Experiment [10] has as its system PC-3 prostate.

For the molecule `CC(=O)Nc1nc(SCc2ccccc2)c2ncn(C(C)=O)c2n1`, the GI50 is 63.4 µM in experiment [1]; 88.8 µM in experiment [2]; 66.1 µM in [3]; more than 100 µM in [4]; 30.9 µM in experiment [5]; 97.7 µM in experiment [6]. The GI50 in experiment [7] is 61.6 µM; in experiment [8], more than 100 µM; in experiment [9], 72.5 µM; in experiment [10], 72.2 µM. The TGI in experiment [1], in experiment [2], in experiment [3], in [4], in [5] and in [6] was more than 100 µM each time. In addition, the TGI in experiment [7], in experiment [8], in experiment [9] and in experiment [10] was more than 100 µM throughout.

On to `CCN1C(=O)N(CC)C2C1NN=c1s/c(=C3\C(=O)N(CC(C)C)c4ccccc43)c(=O)n12` (centres undefined), for which the GI50 in experiment [1] was 0.396 µM; in [2], 0.548 µM; in [3], 0.542 µM; in experiment [4], 1.89 µM; in [5] it was 0.335 µM; in [6] it was 0.327 µM. The GI50 in experiment [7] was 0.723 µM; in experiment [8] it was 0.974 µM; in experiment [9] it was 1.02 µM; in [10], 0.514 µM. The TGI in experiment [1] is more than 100 µM; in experiment [2], 27.4 µM; in experiment [3], 11.4 µM; in experiment [4] it was 39.2 µM; in experiment [5], 2.45 µM; in experiment [6] it was 1.66 µM. In addition, the TGI is more than 45 µM in [7], more than 100 µM in experiment [8], 26.7 µM in [9] and more than 100 µM in experiment [10].

As for `N=C1c2nc3n(c2C(=O)c2nc4n(c21)CCCC4)CCCC3`, the GI50 in experiment [1] was 2.56 µM; in [2], 5.75 µM; in [3], 1.74 µM; in [4], 2.89 µM; in experiment [5], 15.8 µM; in experiment [6], 2.42 µM. The GI50 in [7] was 20.5 µM; in experiment [8] it was 47.2 µM; in [9] it was 32.2 µM; in experiment [10], more than 68.8 µM. Besides, the TGI came to 5.51 µM in [1]; 48.7 µM in experiment [2]; 3.4 µM in experiment [3]; 12.5 µM in [4]; 51 µM in experiment [5]; 5.2 µM in [6]. Besides, the TGI was more than 100 µM in [7], more than 100 µM in experiment [8], more than 89.3 µM in experiment [9] and more than 100 µM in [10].

Take `Cn1ccc2c(NCCN)c3c(c(NCCN)c21)C(=O)c1ccccc1C3=O`: the GI50 in experiment [1] was 7.77 µM; in experiment [2], 1.03 µM; in experiment [3], 0.968 µM; in [4] it was 20.5 µM; in [5], 1.5 µM; in experiment [6] it was 0.291 µM. The GI50 in experiment [7] is 2.5 µM; in experiment [8], less than 0.0429 µM; in experiment [9] it was 0.443 µM; in experiment [10] it was 0.494 µM. Moreover, the TGI is more than 44.8 µM in [1]; 9.88 µM in experiment [2]; 5.77 µM in experiment [3]; 47.2 µM in experiment [4]; 3.67 µM in [5]; 1.55 µM in experiment [6]. The TGI is 9.04 µM in experiment [7], 3.95 µM in experiment [9] and 3.18 µM in experiment [10].

Regarding `C=C1CC[C@@]2(C#N)[C@H]3[C@H](CC[C@@H]2C)[C@@H](C)C[C@@H](CC(C)(C)C#N)[C@H]13`, the GI50 in experiment [1] is 0.469 µM; in experiment [2], 2.86 µM; in experiment [3], 0.171 µM; in experiment [4], 10.1 µM; in [5], 5.85 µM; in experiment [6], 0.609 µM. Moreover, the GI50 was 1.03 µM in experiment [7], 3.02 µM in [8], 2.33 µM in [9] and 0.283 µM in [10]. Moreover, the TGI in experiment [1] came to 16.1 µM; in [2] it was 29.8 µM; in experiment [3] it was 1.68 µM; in experiment [4], 70.1 µM; in [5], 22.8 µM; in experiment [6], 17.5 µM. For the same molecule, the TGI in experiment [7] stood at 14.7 µM; in experiment [8], 72.1 µM; in experiment [9] it was 23.3 µM; in experiment [10] it was 30.5 µM.

For the molecule `Cc1ccccc1CN1CC2=C(CCN(Cc3ccccc3)C2=O)N2CCN=C12`, the TGI in [1] was more than 100 µM; in experiment [2], more than 100 µM; in experiment [3], more than 60.4 µM; in experiment [4], more than 100 µM; in experiment [5] it was more than 100 µM; in experiment [6], more than 14.1 µM. Also, the TGI in [7], in experiment [8], in experiment [9] and in [10] was more than 100 µM each time.
